The source of these data is paper PMC4764904 (Scientific Reports, 2016).

Marks after values point to notes of the source that are not given here. Where a SMILES comes first, the peptide text is derived from it. [ ]: non-standard residue; d: D form. The star is where a group is joined. Fmoc = O=C(OCC1c2ccccc2-c2ccccc21)*

Data set [1] in a line: Peptide stability in FBS by residual IP3 production. The data set is classed as in vitro ADME, bovine. The following applies: peptide 1 μM in 100% FBS, 37 °C, 0, 3, 6, 12, 24, 48, 72 h; residual activity read as IP3 production ([3H]-inositol) in HEK293 cells expressing GALR2; mean ± S.E., at least three independent experiments. How it is done:
(§1) To investigate the effects of the modifications on proteolytic susceptibility, the functional activity of peptides that were incubated in 100% serum at 37 °C for 0, 3, 6, 12, 24, 48, and 72 h was determined via inositol 1,4,5-triphosphate (IP3) production in GALR2-expressing cells (Fig. 4A–C and Table 3). […] In addition, dAla4 and dGln14 substitutions contribute to longer longevity of the peptide in serum. In an additional experiment, we examined the degradation rates of the Qu mutant, as well as the Qu mutant with an N-terminal modification and/or dAla4 and dGln14 substitutions.
(§2) Figure 4 Stability of SPX mutants in the presence of FBS (A) Qu analogs in FBS (B) and human serum (C). Potency of Qu mutants toward GALR2 (D) and GALR3 (E). For stability of SPX mutants, peptides (1 μM) were incubated in serum for 0, 3, 6, 12, 24, 48, and 72 hrs. The remaining activities of the peptides were determined by measuring IP3 production by HEK293 cells that express GALR2 after the indicated times. IP3 production was expressed as percent change, where 100% indicates IP3 production by WT SPX incubated in FBS or human serum for 0 h. For potency of Qu mutants toward GALR2 and GALR3, the SRE-luc reporter vector and plasmid containing human GALR2 or GALR3 were transfected into HEK293 cells that stably expressed Gqi protein. Cells were then treated with increasing concentrations of mutant peptides, and the receptor activities were determined using the SRE-luc reporter system.
(§3) To evaluate the stability of SPX and its analogs in FBS or human serum, peptides were incubated at an initial concentration of 1 μM in 100% serum at 37 °C for 0, 3, 6, 12, 24, 48, and 72 hours. Residual peptide activity was then assessed by measuring IP3 in HEK293 cells expressing GALR2. For the IP3 assay, cells were seeded in 12-well plates at a density of 2.5 × 10^5 cells per well, and then the next day, cells were transiently transfected with 1 μg/well of plasmid containing GALR2 using the Lipofectamine 2000 (Invitrogen) transfection reagent. The day following transfection, cells were incubated in M199 media containing 1% FBS, 1% L-glutamine, 1% penicillin/streptomycin, and 1 μCi/well of myo-^3H inositol for 20 h. After a 30-min incubation in buffer A (140 mM NaCl, 20 mM Hepes, 4 mM KCl, 8 mM D-glucose, 1 mM MgCl2, 1 mM CaCl2, 1 mg/ml free fatty acid bovine serum albumin (BSA), and 10 mM LiCl at pH 7.2), cells were treated with the agonist for 40 min at 37 °C. Media was removed, and the reactions were terminated by addition of 1 ml of 10 mM cold formic acid to each well. The plates were stored at 4 °C for 30 min, and the extracts were then transferred into 6-ml plastic tubes containing 500 μl AG1–8X anion exchange columns (BIO-RAD). The tubes were gently mixed with a vortexer, and the supernatants were removed by aspiration. Two washes with 1 ml of distilled water were performed followed by two additional washes with 60 mM ammonium formate/5mM sodium tetraborate. Tritiated inositol was separated from the column by elution with 1 ml of 1 M ammonium formate/0.1 M formic acid, and 800 μl from the elution were taken from each tube and transferred into 6-ml scintillation vials. Then, 2 ml of scintillation cocktail solution (Ultima Gold^TM, Perkin Elmer, Waltham MA, USA) was added to each sample. The radioactivity of [^3H]-myo-inositol samples was measured using a TRI carb 3100TR liquid scintillation analyzer (Packard).

The target of data set [2] is T1, human GALR3 (Homo sapiens, UniProt O60755).
T1 construct: host or cells: HEK293 cells stably expressing Gαqi
T1 sequence (O60755 1-368): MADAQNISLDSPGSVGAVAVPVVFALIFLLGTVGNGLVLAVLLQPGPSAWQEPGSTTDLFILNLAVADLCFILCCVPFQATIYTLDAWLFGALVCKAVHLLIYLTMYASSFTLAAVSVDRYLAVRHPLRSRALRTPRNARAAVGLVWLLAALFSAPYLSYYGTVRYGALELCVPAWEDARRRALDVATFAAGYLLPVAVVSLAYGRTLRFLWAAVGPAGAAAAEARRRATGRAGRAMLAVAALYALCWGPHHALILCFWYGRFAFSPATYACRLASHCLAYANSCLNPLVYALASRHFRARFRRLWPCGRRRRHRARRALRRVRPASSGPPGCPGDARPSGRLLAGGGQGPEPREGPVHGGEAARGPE
Put plainly: SRE-luc reporter assay, GALR3.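 Note: luciferase activity read in cell lysates across rising peptide concentrations, EC50 being the agonist concentration giving half-maximal stimulation from a sigmoidal nonlinear fit, Gαqi routing Gi-coupled receptor signaling through Gq.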 Particulars: HEK293-Gqi cells transfected with SRE-luc and human GALR3; 6 h ligand treatment; mean ± S.E. of at least three independent experiments; NM = not measurable; read-out: GALR3 EC50. The format is cell-based.
Procedure: (§4) The generated mutant SPX peptides were incubated with cells expressing GALR2 and GALR3. […] The activities of the receptors were traced using the serum-response element-driven luciferase (SRE-luc) assay system.
(§5) The SRE-luc reporter vector and plasmid containing human GALR1, GALR2, or GALR3 were transfected into HEK293 cells that stably expressed Gqi protein. Cells were then treated with increasing concentrations of mutant peptides, and the receptor activities were determined using the SRE-luc reporter system.
(§6) HEK293 cells stably expressing Gαqi, which mediates Gαi-coupled receptor activation by stimulating Gαq-dependent signaling pathways[59], were maintained in Dulbecco’s modified Eagle’s medium (DMEM) supplemented with 10% FBS, 100 U/ml penicillin G, and 100 μg/ml streptomycin (Invitrogen). Cells were seeded in 48-well plates at a density of 2 × 10^4 cells per well, one day before transfection. A mixture containing 75 ng of the SRE-luc reporter construct, 75 ng of expression plasmid, and 2 μl of Effectene reagent (Qiagen, Chatsworth, CA, USA) was prepared and added to each well according to the manufacturer’s instructions. Cells were then maintained in serum-free DMEM for 16–18 h before treatment with the ligands. Approximately 48 h after transfection, cells were treated with the respective ligands for 6 h. Cells were lysed by the addition of 100 μl lysis buffer. The luciferase activity in 50 μl of cell extract was determined by a luciferase assay system according to the standard protocol for the Synergy 2 Multi-Mode Microplate Reader (BioTek, Winooski, VT, USA).
(§7) For in vitro studies data analysis was performed by nonlinear regression with a sigmoidal dose-response. The agonist concentrations that induced half-maximal stimulation (EC50) or half-maximal inhibition of binding (IC50) were calculated with GraphPad PRISM4 software (GraphPad Software Inc., San Diego, CA, USA). […] All data are presented as mean ± S.E. of at least three independent experiments and a P value of P < 0.05 was considered statistically significant.

The target of data set [3] is T2, human GALR2 (Homo sapiens, UniProt O43603).
T2 construct: host or cells: HEK293 cells stably expressing Gαqi
T2 sequence (O43603 1-387): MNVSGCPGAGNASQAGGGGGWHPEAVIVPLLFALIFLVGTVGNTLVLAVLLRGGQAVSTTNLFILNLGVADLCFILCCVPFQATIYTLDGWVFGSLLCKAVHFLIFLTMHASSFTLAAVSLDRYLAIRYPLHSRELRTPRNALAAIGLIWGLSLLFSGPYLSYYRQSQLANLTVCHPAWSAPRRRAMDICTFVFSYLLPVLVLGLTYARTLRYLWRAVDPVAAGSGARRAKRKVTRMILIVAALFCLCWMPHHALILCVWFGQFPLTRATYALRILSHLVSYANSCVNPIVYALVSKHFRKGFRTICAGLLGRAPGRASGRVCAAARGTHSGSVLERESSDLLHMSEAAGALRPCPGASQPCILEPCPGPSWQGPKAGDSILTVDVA
Put plainly: SRE-luc reporter assay, GALR2.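 Note: luciferase activity read in cell lysates after exposure to rising peptide concentrations, EC50 being the agonist level giving half-maximal stimulation from a sigmoidal nonlinear regression fit.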 The format is cell-based. Particulars: HEK293-Gqi cells transfected with SRE-luc and human GALR2; 6 h ligand treatment; mean ± S.E. of at least three independent experiments; NM = not measurable; read-out: GALR2 EC50.
Procedure: as §4, §5, §6, §7

The nature of data set [4]: Peptide stability in human serum by residual IP3 production. The format is in vitro ADME. Particulars: peptide 1 μM in 100% human serum, 37 °C, 0, 3, 6, 12, 24, 48, 72 h; residual activity read as IP3 production ([3H]-inositol) in HEK293 cells expressing GALR2; mean ± S.E., at least three independent experiments. The protocol:
as §1, §2, §3

In the case of `CSCC[C@H](NC(=O)[C@H](C)NC(=O)[C@H](CCC(N)=O)NC(=O)[C@@H]1CCCN1C(=O)[C@@H](NC(=O)[C@H](Cc1c[nH]c2ccccc12)NC(=O)[C@@H](N)CC(N)=O)[C@@H](C)O)C(=O)N[C@@H](CC(C)C)C(=O)N[C@@H](Cc1ccc(O)cc1)C(=O)N[C@@H](CC(C)C)C(=O)N[C@@H](CCCCN)C(=O)NCC(=O)N[C@@H](C)C(=O)N[C@H](CCC(N)=O)C(N)=O` [dQa14], the “Half-life activity (h) in FBS” value in data set [1] is 5.6 ± 0.2 ^a h. The half-maximal effective concentration (EC50) in data set [2] amounted to 324 ± 66.6 nM; in data set [3], 77.6 ± 16 nM.

As for `CSCC[C@H](NC(=O)[C@H](C)NC(=O)[C@H](CCC(N)=O)NC(=O)[C@@H]1CCCN1C(=O)[C@@H](NC(=O)[C@@H](Cc1c[nH]c2ccccc12)NC(=O)[C@@H](N)CC(N)=O)[C@@H](C)O)C(=O)N[C@@H](CC(C)C)C(=O)N[C@@H](Cc1ccc(O)cc1)C(=O)N[C@@H](CC(C)C)C(=O)N[C@@H](CCCCN)C(=O)NCC(=O)N[C@@H](C)C(=O)N[C@@H](CCC(N)=O)C(N)=O` [dW2], in data set [1], the “Half-life activity (h) in FBS” value came out at 4.5 ± 0.6 h. The EC50 was found to be 138 ± 23.2 nM in data set [2] and 100 ± 18.7 nM in data set [3].

`CSCC[C@H](NC(=O)[C@H](C)NC(=O)[C@H](CCC(N)=O)NC(=O)[C@@H]1CCCN1C(=O)[C@@H](NC(=O)[C@H](Cc1c[nH]c2ccccc12)NC(=O)[C@H](N)CC(N)=O)[C@@H](C)O)C(=O)N[C@@H](CC(C)C)C(=O)N[C@@H](Cc1ccc(O)cc1)C(=O)N[C@@H](CC(C)C)C(=O)N[C@@H](CCCCN)C(=O)NCC(=O)N[C@@H](C)C(=O)N[C@@H](CCC(N)=O)C(N)=O` [dN1]: the “Half-life activity (h) in FBS” value in data set [1] was 10.3 ± 0.3 ^a h. Moreover, the EC50 in data set [2] stood at 38.9 ± 8 nM; in data set [3] it was 21.4 ± 5.54 nM.

In the case of `CC(C)C[C@H](NC(=O)[C@H](C)NC(=O)[C@H](C)NC(=O)[C@H](CC(N)=O)NC(=O)[C@@H](C)NC(=O)[C@@H](NC(=O)[C@H](Cc1c[nH]c2ccccc12)NC(=O)[C@H](CC(N)=O)NC(=O)OCC1c2ccccc2-c2ccccc21)[C@@H](C)O)C(=O)N[C@@H](Cc1ccc(O)cc1)C(=O)N[C@@H](CC(C)C)C(=O)N[C@@H](Cc1ccccc1)C(=O)NCC(=O)N1CCC[C@H]1C(=O)N[C@H](CCC(N)=O)C(N)=O` [Fmoc-Qu-dA4-dQ14] (Fmoc-NWT[dA]NAALYLFGP[dQ]-NH2), the “Half-life activity (h) in Human Serum” value in data set [4] is 8.8 ± 0.2 ^a h. Moreover, the “Half-life activity (h) in FBS” value in data set [1] was 11.8 ± 0.2 ^a h.

Turning to `CSCC[C@H](NC(=O)[C@H](C)NC(=O)[C@H](CCC(N)=O)NC(=O)[C@@H]1CCCN1C(=O)[C@@H](NC(=O)[C@H](Cc1c[nH]c2ccccc12)NC(=O)[C@H](CC(N)=O)NC(C)=O)[C@@H](C)O)C(=O)N[C@@H](CC(C)C)C(=O)N[C@@H](Cc1ccc(O)cc1)C(=O)N[C@@H](CC(C)C)C(=O)N[C@@H](CCCCN)C(=O)NCC(=O)N[C@@H](C)C(=O)N[C@@H](CCC(N)=O)C(N)=O` [Ac-N1], in data set [1], the “Half-life activity (h) in FBS” value is reported as 8.7 ± 0.6 ^a h. Also, the EC50 in data set [2] worked out at 81.3 ± 16.7 nM; in data set [3], 58.9 ± 11 nM.

Consider `CC(C)C[C@H](NC(=O)[C@H](C)NC(=O)[C@H](C)NC(=O)[C@H](CC(N)=O)NC(=O)[C@@H]1CCCN1C(=O)[C@@H](NC(=O)[C@H](Cc1c[nH]c2ccccc12)NC(=O)[C@H](CC(N)=O)NC(=O)OCC1c2ccccc2-c2ccccc21)[C@@H](C)O)C(=O)N[C@@H](Cc1ccc(O)cc1)C(=O)N[C@@H](CC(C)C)C(=O)N[C@@H](Cc1ccccc1)C(=O)NCC(=O)N1CCC[C@H]1C(=O)N[C@H](CCC(N)=O)C(N)=O` [Fmoc-Qu-dQ14] (Fmoc-NWTPNAALYLFGP[dQ]-NH2), for which the “Half-life activity (h) in Human Serum” value in data set [4] is 6.3 ± 0.1 ^a h. Also, the “Half-life activity (h) in FBS” value in data set [1] is reported as 8.4 ± 0.3 ^a h.

Take `CC(C)C[C@H](NC(=O)[C@H](C)NC(=O)[C@H](C)NC(=O)[C@H](CC(N)=O)NC(=O)[C@@H]1CCCN1C(=O)[C@@H](NC(=O)[C@H](Cc1c[nH]c2ccccc12)NC(=O)[C@H](N)CC(N)=O)[C@@H](C)O)C(=O)N[C@@H](Cc1ccc(O)cc1)C(=O)N[C@@H](CC(C)C)C(=O)N[C@@H](Cc1ccccc1)C(=O)NCC(=O)N1CCC[C@H]1C(=O)N[C@@H](CCC(N)=O)C(N)=O` [dN1-Qu] (H-[dN]WTPNAALYLFGPQ-NH2): the “Half-life activity (h) in Human Serum” value in data set [4] is on record as 2.9 ± 0.1 ^a h. Moreover, the “Half-life activity (h) in FBS” value in data set [1] is 4.2 ± 0.1 ^a h.

As for `CSCC[C@H](NC(=O)[C@H](C)NC(=O)[C@H](CCC(N)=O)NC(=O)[C@@H]1CCCN1C(=O)[C@@H](NC(=O)[C@H](Cc1c[nH]c2ccccc12)NC(=O)[C@H](CC(N)=O)NC(=O)OCC1c2ccccc2-c2ccccc21)[C@@H](C)O)C(=O)N[C@@H](CC(C)C)C(=O)N[C@@H](Cc1ccc(O)cc1)C(=O)N[C@@H](CC(C)C)C(=O)N[C@@H](CCCCN)C(=O)NCC(=O)N[C@@H](C)C(=O)N[C@@H](CCC(N)=O)C(N)=O` [Fmoc], in data set [1], the “Half-life activity (h) in FBS” value is recorded as 14.2 ± 0.2 ^a h. The concentration for a half-maximal effect (EC50) was 126 ± 25.9 nM in data set [2] and 77.6 ± 16 nM in data set [3].

As for `CSCC[C@H](NC(=O)[C@H](C)NC(=O)[C@H](CCC(N)=O)NC(=O)[C@@H](C)NC(=O)[C@@H](NC(=O)[C@H](Cc1c[nH]c2ccccc12)NC(=O)[C@@H](N)CC(N)=O)[C@@H](C)O)C(=O)N[C@@H](CC(C)C)C(=O)N[C@@H](Cc1ccc(O)cc1)C(=O)N[C@@H](CC(C)C)C(=O)N[C@@H](CCCCN)C(=O)NCC(=O)N[C@@H](C)C(=O)N[C@@H](CCC(N)=O)C(N)=O` [dA4] (H-NWT[dA]QAMLYLKGAQ-NH2), the “Half-life activity (h) in FBS” value in data set [1] is given as 8.7 ± 0.4 ^a h. Also, the figures for the EC50 in data set [2] and in data set [3] were 112 ± 23.1 nM and 97.7 ± 18.3 nM, respectively.
